Experiments:
ovarian steroidogenosis = experiment: Inhibitory activity on ovarian steroidogenesis in women with normal menstrual cycles; assay type: in vivo
Protocol: The inhibitory activity of [D Ser (tbu)^6 des GlyNH2^10 ] LH-RH ethylamide on ovarian steroidogenosis in women was determined on 6 women aged 26 to 35 years with normal and regular menstrual cycles and without prior endocrinal or gynecological problems. The study was conducted for 6 consecutive cycles consisting of 2 pretreatment cycles, 2 treatment cycles and 2 post-treatment cycles. Two drops of a solution containing 500 μg of [D Ser (tbu)^6 des GlyNH2^10 ] LH--RH ethylamide were deposited on each nostril at 8 A.M. and 5 P.M. of a day between the 4th and 9th day after the peak of LH-day 0. Daily blood samples were taken between 4 and 6 P.M. to measure seric levels of LH, FSH, progesterone and estradiol which were determined by radioimmuno-logictests with double antibodies. The antibodies to measure LH and FSH were furnished by the National Pituitory Agency of N.I.H. of Bethesda, Md.
Estradiol and progesterone were measured with highly specific antibodies developed against 7-(O-carboxymethyl)-oxime of estradiol and 12-(O-carboxymethyl)-oxime of progesterone, respectively [3H] 17β-estradiol and ^125 I-progesterone-12-[O-carboxymethyl)-oxime]used as tracers. The serum was extracted with benzene and the steroids were separated with a LH-20 column before the determination. The radioimmunological results were exploited by the program derived from model II of Rodbard and Lewald as in Example 1 and the statistical significance was measured by the multiple level test of Ducan-Kramer of Example 1. The results are shown in the graphs of sheets 3 to 5 of the Figures.

[1] = system: testicular steroidogensis; experiment: Inhibitory activity against testicular steroidogenesis in men in good health, single intranasal administration; assay type: in vivo; conditions: for seric steroid/testosterone level on the fourth day after administration: fourth day (until 6th day)
Protocol: The inhibitory activity of [D Ser (tbu)^6 des GlyNH2^10 ] LH-RH ethylamide (described in German application Ser. No. 2,438,350) against testicular steroidogensis in men in good health was determined on men in good health aged 30 to 40 years. The said product was administered intranasally at a dose of 500 μg in a few drops of distilled water at 8 A.M. on the third day of the test. For 2 days prior to the treatment and for 6 days after the treatment, samples of blood were taken daily at 8 A.M., 3 P.M. and 10 P.M. On the day of administration of the LH--RH agonist, blood samples were taken at 11 A.M. and 6 P.M.
The seric concentrations of LH and FSH were measured by radioimmuno-logic dosages with double antibodies and the antibodies for measuring LH and FSH were furnished by the National Pituitary Agency of N.I.H. in Bethesda, Md. The seric concentrations of steroids was measured by radioimmuno-logic dosages in which one ml of serum was extracted with ether and the steroids were separated on a LH-20 column before measuring with radioimmuno-logic dosages. The radioimmuno-logic dosage results were determined by a program derived from model II of Rodbard et al [Second Karolinska Symposium on Research Methods in Reproductive Endrocinology, Diczfalusky Editor, Copenhague (1970), p. 79-103]. The statistical significance was determined by the "multiple level test" of Duncan-Kramer [Kramer, Biometrics, Vol 12 (1956), p. 307]. The results are shown in the graphs on sheet 1 of the Figures filed herewith.

[2] = 500 μg intranasal at 8 A.M. and 5 P.M. of one day in luteal phase, typical subject (sheet 3)
[3] = human, single intranasal dose 500 μg

SMILES: CCNC(=O)[C@@H]1CCCN1C(=O)[C@H](CCCNC(=N)N)NC(=O)[C@H](CC(C)C)NC(=O)[C@@H](COC(C)(C)C)NC(=O)[C@H](Cc1ccc(O)cc1)NC(=O)[C@H](CO)NC(=O)[C@H](Cc1c[nH]c2ccccc12)NC(=O)[C@H](Cc1c[nH]cn1)NC(=O)[C@@H]1CCC(=O)N1 [[D Ser (tbu)^6 des GlyNH2^10] LH-RH ethylamide]
- reduction of seric levels of progesterone compared to controls, first cycle of treatment (ovarian steroidogenosis; [2]): 13%
- reduction of seric levels of progesterone compared to controls, second cycle of treatment (ovarian steroidogenosis; [2]): 34%
- progesterone level of post-treatment cycles, pretreatment cycles = 100% (ovarian steroidogenosis; 12 cycles): 99%
- progesterone level of treatment cycles, pretreatment cycles = 100% (ovarian steroidogenosis; 12 cycles): 46%
- level of progesterone reduced by, compared to the controls (ovarian steroidogenosis; 12 cycles, sheet 5): 46%
- course of seric progesterone level in the 2 cycles of treatment (ovarian steroidogenosis; sheet 4, return to normal for the 2 post-treatment cycles): accelerated diminution
- duration of the drop of seric levels of testicular steroids (testosterone and precursors) [1, 3]: 3 days
- seric steroid/testosterone level on the fourth day after administration [1, 3]: return to normal levels
- seric steroid/testosterone level on the fourth day after administration ([1]; human, single intranasal dose 500 μg, listed as [D Ser (tbu)^6 des Gly NH2^10 ] LH-RH ethylamide): the level returned to normal
- overall effect on testicular steroidogenesis ([1]; man, intranasal 500 μg): inhibition of testicular steroidogenesis

Reference: patent publication US4851386A, “Method of treating precocious puberty” (Roussel Uclaf, priority 1979, dated 1989)
